Measurements published in PMC12655351, “Synthesis and Anticancer Activity Evaluation of New 5-((5-Nitrofuran-2-yl)allylidene)-2-thioxo-4-thiazolidinones” (Pharmaceuticals, 2025).

Key:
A498 [1] = assay: cells; settings: Homo sapiens, A498, 48 h
RPMI 8866 = assay: MTT assay; format: cell-based; settings: Homo sapiens; RPMI 8866, 24 h of treatment
Method: (§1) The NCI-60 screening protocol utilizes the sulforhodamine B (SRB) assay following 48 h of compound exposure. […] The MTT assay was performed on eleven cancer cell lines: human breast cancer (MDA-MB-231, MCF-7, HCC 1954), human gastric cancer (AGS), human colorectal adenocarcinoma (HT-29, DLD-1, HCT 116), human neuroblastoma (SH SY5Y), and human leukemia (JURKAT, RMPI 8866, K-562) cell lines. The study was conducted in triplicate at the following seven concentrations: 0.62, 1.25, 2.5, 5, 10, 20, and 40 μM.
(§2) The selected cell lines were seeded into 96-well plates and cultured in accordance with the previously described methodology. Then, the cells were treated with all tested compounds and DOX at concentrations of 0.625, 1.25, 2.5, 5.0, 10.0, 20.0, and 40.0 μM for 24 h. A solution of 3-(4,5-dimethyl-2-thiazolyl)-2,5-diphenyl-2H-tetrazolium bromide (Sigma-Aldrich, St. Louis, MO, USA) in phosphate-buffered saline without calcium and magnesium (Corning, Kennebunk, ME, USA) at a concentration of 5 mg/mL was used to carry out MTT assay. After incubation, 20 μL of the prepared MTT solution was added, and then the cells were incubated at 37 °C for two hours. Afterwards, the cells were lysed using 100 μL of lysing buffer (comprising 25 mM HCl, 2% acetic acid, 3% DMF, and 5% SDS, with a pH of 4.7). The absorbance was determined at a wavelength of 570 nm using an Absorbance 96 microplate reader (Byonoy GmbH, Hamburg, Germany).

AGS = assay: MTT assay; format: cell-based; settings: Homo sapiens, 24 h of treatment
Method: as §1, §2

HT-29 = assay: MTT assay; format: cell-based; settings: Homo sapiens; HT-29, 24 h of treatment
Method: as §1, §2

MCF-7 = assay: MTT assay; format: cell-based; settings: Homo sapiens, MCF7; MCF-7, 24 h of treatment
Method: as §1, §2

K562 = assay: MTT assay; format: cell-based; settings: Homo sapiens; K562, 24 h of treatment
Method: as §1, §2

MDA-MB-231 = assay: MTT assay; format: cell-based; settings: Homo sapiens; MDA-MB-231, 24 h of treatment
Method: as §1, §2

DLD-1 = assay: MTT assay; format: cell-based; settings: Homo sapiens; DLD-1, 24 h of treatment
Method: as §1, §2

HCC-1954 = assay: MTT assay; format: cell-based; settings: Homo sapiens, HCC1954; HCC-1954, 24 h of treatment
Method: as §1, §2

HCT-116 = assay: MTT assay; format: cell-based; settings: Homo sapiens; HCT-116, 24 h of treatment
Method: as §1, §2

Jurkat = assay: MTT assay; format: cell-based; settings: Homo sapiens, 24 h of treatment
Method: as §1, §2

SH SY5Y = assay: MTT assay; format: cell-based; settings: Homo sapiens, 24 h of treatment
Method: as §1, §2

A498 [2] = settings: A498, 48 h
LOX IMVI = settings: LOX IMVI, 48 h
RPMI-8226 = assay: cells; settings: Homo sapiens, RPMI-8226, 48 h; for CC50: read-out: LC50
HT29 = assay: cells; settings: Homo sapiens, HT-29, 48 h; for GI50: HT29, 48 h; for CC50: read-out: LC50, HT29, 48 h
Breast cancer = Breast cancer subpanel
OVCAR-3 = settings: OVCAR-3, 48 h
SN12C = settings: SN12C, 48 h
U251 = assay: NCI-60 SRB screen; settings: for GI50 / CC50: Homo sapiens, U-251, 48 h; for GI50 / TGI: U251, 48 h; for CC50: read-out: LC50, U251, 48 h
SK-MEL-5 = assay: cells; settings: Homo sapiens, SK-MEL-5, 48 h; for CC50: read-out: LC50, SK-MEL-5, 48 h
786-0 = assay: cells; settings: Homo sapiens, 786-0, 48 h
HS 578T = settings: 48 h
SK-OV-3 = assay: cells; settings: Homo sapiens, SK-OV-3, 48 h; for CC50: read-out: LC50, SK-OV-3, 48 h
COLO 205 = settings: COLO 205, 48 h
Leukemia = assay: cells; settings: Homo sapiens; for GI50: read-out: MG_MID GI50; for CC50: read-out: MG_MID LC50
RXF 393 = assay: NCI-60 SRB screen; settings: RXF 393, 48 h; for GI50: Homo sapiens
NCI-H460 = assay: NCI-60 SRB screen; settings: NCI-H460, 48 h; for GI50 / CC50: Homo sapiens; for CC50: read-out: LC50
NCI-H266 = assay: NCI-60 SRB screen; settings: for GI50 / CC50: Homo sapiens, 48 h; for GI50 / TGI: NCI-H266, 48 h; for CC50: read-out: LC50, NCI-H266, 48 h
Prostate Cancer = Prostate Cancer subpanel
NCI-H23 = assay: cells; settings: Homo sapiens, NCI-H23, 48 h; for CC50: read-out: LC50, NCI-H23, 48 h

Q: Which results are given for CCCC(C(=O)O)N1C(=O)/C(=C/C=C/c2ccc([N+](=O)[O-])o2)SC1=S (centres unmarked) [4b, 2-((Z)-5-((E)-3-(5-Nitrofuran-2-yl)allylidene)-4-oxo-2-thioxothiazolidin-3-yl)pentanoic acid]?
A: GI50 (A498 [1]): 2.24 µM; IC50 (RPMI 8866): 19.6 µM; IC50 (AGS): 6.54 µM; IC50 (HT-29): 13.2 µM; IC50 (MCF-7): 5.87 µM; IC50 (K562): 16.1 µM; IC50 (MDA-MB-231): 17.5 µM; IC50 (DLD-1): 7.61 µM; IC50 (HCC-1954): 7.07 µM; IC50 (HCT-116): 7.89 µM; IC50 (Jurkat): 5.85 µM; IC50 (SH SY5Y): 16.3 µM; TGI (A498 [2]): 7.21 µM; TGI (LOX IMVI): 3.12 µM; GI50 (RPMI-8226): 1.79 µM; CC50 (RPMI-8226): > 100 µM; GI50 (HT29): 1.95 µM; CC50 (HT29): 7.45 µM; MG_MID TGI (Breast cancer): 5.00 µM; TGI (OVCAR-3): 5.39 µM; growth GP (SN12C; 10 μM): -95.04%; TGI (SN12C): 4.05 µM; GI50 (U251): 1.69 µM; CC50 (U251): 6.7 µM; TGI (U251): 3.37 µM; GI50 (SK-MEL-5): 1.47 µM; CC50 (SK-MEL-5): 5.31 µM; GI50 (786-0): 3.71 µM; TGI (HS 578T): 10.1 µM; GI50 (SK-OV-3): 5.8 µM; CC50 (SK-OV-3): 47.2 µM; TGI (COLO 205): 3.60 µM; GI50 (Leukemia): 2.36 µM; CC50 (Leukemia): > 100 µM; GI50 (RXF 393): 1.89 µM; TGI (RXF 393): 3.40 µM; GI50 (NCI-H460): 1.7 µM; CC50 (NCI-H460): 6.23 µM; TGI (NCI-H460): 3.25 µM; GI50 (NCI-H266): 2.62 µM; CC50 (NCI-H266): 78.9 µM; TGI (NCI-H266): 7.83 µM; MG_MID TGI (Prostate Cancer): 8.56 µM; GI50 (NCI-H23): 1.97 µM; CC50 (NCI-H23): 8.57 µM

Q: Which GI50 (A498 [1]) does the source give for CCCCC(C(=O)O)N1C(=O)/C(=C/C=C/c2ccc([N+](=O)[O-])o2)SC1=S (centres unmarked) [6b, 2-((Z)-5-((E)-3-(5-nitrofuran-2-yl)allylidene)-4-oxo-2-thioxothiazolidin-3-yl)hexanoic acid] here?
A: 3.03 µM

Q: And the IC50 (RPMI 8866)?
A: 15.2 µM

Q: What about the IC50 (AGS) of the same compound?
A: 3.99 µM

Q: What about the IC50 (HT-29) of the same compound?
A: 8.01 µM

Q: What about the IC50 (MCF-7) of the same compound?
A: 6.39 µM

Q: And the IC50 (K562)?
A: 36.2 µM

Q: And the IC50 (MDA-MB-231)?
A: 10.3 µM

Q: And the IC50 (DLD-1)?
A: 4.58 µM

Q: What about the IC50 (HCC-1954) of the same compound?
A: 4.18 µM

Q: What about the IC50 (HCT-116) of the same compound?
A: 17.6 µM

Q: And the IC50 (Jurkat)?
A: 13.9 µM

Q: What about the IC50 (SH SY5Y) of the same compound?
A: 8.39 µM

Q: What about the TGI (A498 [2]) of the same compound?
A: 8.28 µM

Q: And the TGI (LOX IMVI)?
A: 3.34 µM

Q: And the GI50 (RPMI-8226)?
A: 1.78 µM

Q: And the CC50 (RPMI-8226)?
A: > 100 µM

Q: What about the GI50 (HT29) of the same compound?
A: 1.98 µM

Q: And the CC50 (HT29)?
A: 6.95 µM

Q: And the “MG_MID TGI” value (Breast cancer)?
A: 7.71 µM

Q: And the TGI (OVCAR-3)?
A: 5.33 µM

Q: And the TGI (SN12C)?
A: 4.00 µM

Q: And the GI50 (U251)?
A: 1.91 µM

Q: And the CC50 (U251)?
A: 11 µM

Q: And the TGI (U251)?
A: 4.42 µM

Q: And the GI50 (SK-MEL-5)?
A: 1.45 µM

Q: And the CC50 (SK-MEL-5)?
A: 5.29 µM

Q: What about the GI50 (786-0) of the same compound?
A: 3.11 µM

Q: What about the TGI (HS 578T) of the same compound?
A: 27.4 µM

Q: And the GI50 (SK-OV-3)?
A: 6.27 µM

Q: And the CC50 (SK-OV-3)?
A: 46.7 µM

Q: And the TGI (COLO 205)?
A: 3.66 µM

Q: And the GI50 (Leukemia)?
A: 2.57 µM

Q: And the CC50 (Leukemia)?
A: 98.4 µM

Q: And the GI50 (RXF 393)?
A: 1.69 µM

Q: What about the TGI (RXF 393) of the same compound?
A: 3.20 µM

Q: And the GI50 (NCI-H460)?
A: 1.84 µM

Q: What about the CC50 (NCI-H460) of the same compound?
A: 69.6 µM

Q: What about the TGI (NCI-H460) of the same compound?
A: 3.61 µM

Q: What about the GI50 (NCI-H266) of the same compound?
A: 2.22 µM

Q: What about the CC50 (NCI-H266) of the same compound?
A: 76.1 µM

Q: And the TGI (NCI-H266)?
A: 5.84 µM

Q: What about the “MG_MID TGI” value (Prostate Cancer) of the same compound?
A: 10.8 µM

Q: What about the GI50 (NCI-H23) of the same compound?
A: 1.85 µM

Q: What about the CC50 (NCI-H23) of the same compound?
A: 6.64 µM
